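Tested at 5 concentrations; 48 h exposure; 96-well plates; endpoints linearly interpolated, else capped at highest concentration. GI50 marks 50% less growth.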 Activity calls are given as the source filed them. No stated cut-off is given here; in the data, active = GI50 up to about 1.1 µM and inactive = higher.
Key:
Assay in all cases: DTP human tumour cell line panel, 48 h
SW-620 = system: SW-620
HOP-92 = system: HOP-92
M14 = system: M14
NCI-H460 = system: NCI-H460
UO-31 = system: UO-31
T47D = system: T47D
MOLT-4 = system: MOLT-4
SK-MEL-2 = system: SK-MEL-2
U-251 = system: U-251
OVCAR-8 = system: OVCAR-8
TK-10 = system: TK-10
SK-MEL-5 = system: SK-MEL-5
NCI-H522 = system: NCI-H522
CAKI-1 = system: CAKI-1
OVCAR-3 = system: OVCAR-3
SK-OV-3 = system: SK-OV-3
Hs-578T = system: Hs-578T
SK-MEL-28 = system: SK-MEL-28
SNB-75 = system: SNB-75
LXFL 529 = system: LXFL 529

Structure (SMILES)	GI50 (SW-620)	GI50 (HOP-92)	GI50 (M14)	GI50 (NCI-H460)	GI50 (UO-31)	GI50 (T47D)	GI50 (MOLT-4)	GI50 (SK-MEL-2)	GI50 (U-251)	GI50 (OVCAR-8)	GI50 (TK-10)	GI50 (SK-MEL-5)	GI50 (NCI-H522)	GI50 (CAKI-1)	GI50 (OVCAR-3)	GI50 (SK-OV-3)	GI50 (Hs-578T)	GI50 (SK-MEL-28)	GI50 (SNB-75)	GI50 (LXFL 529)
CSc1cccc(NC(=O)OC2CCCCCCCCCCC2)c1	18.8 µM (inactive)	27.4 µM (inactive)	22.3 µM (inactive)	16.4 µM (inactive)	7.91 µM (inactive)	25.4 µM (inactive)	23.5 µM (inactive)	18.4 µM (inactive)	18.8 µM (inactive)	26.7 µM (inactive)	26.9 µM (inactive)	15.4 µM (inactive)	13.2 µM (inactive)	17.6 µM (inactive)	10.5 µM (inactive)	16.6 µM (inactive)	34.4 µM (inactive)	39.7 µM (inactive)	35.2 µM (inactive)	
COC(=O)/C(=N\NC(N)=O)C(C#N)c1ccccc1 (stereo not drawn)	> 100 µM (inactive)		> 100 µM (inactive)	> 100 µM (inactive)	> 100 µM (inactive)		> 100 µM (inactive)	> 100 µM (inactive)	> 100 µM (inactive)	> 100 µM (inactive)	> 100 µM (inactive)		> 100 µM (inactive)		> 100 µM (inactive)	> 100 µM (inactive)		> 100 µM (inactive)	> 100 µM (inactive)	> 100 µM (inactive)
Cc1c2ccccc2cc2ccc3oc([N+](=O)[O-])cc3c12	> 100 µM (inactive)	> 100 µM (inactive)	4.46 µM (inactive)	6.19 µM (inactive)	> 100 µM (inactive)		> 100 µM (inactive)	5.47 µM (inactive)	> 100 µM (inactive)	> 100 µM (inactive)	> 100 µM (inactive)	3.18 µM (inactive)		> 100 µM (inactive)	> 100 µM (inactive)	> 100 µM (inactive)			> 100 µM (inactive)	> 100 µM (inactive)
CC(C)=CCC/C(C)=C/Cc1c(O)c(C)cc2c1[nH]c1cc(O)ccc12	> 25 µM (inactive)	> 25 µM (inactive)	> 25 µM (inactive)	> 25 µM (inactive)	> 25 µM (inactive)		> 25 µM (inactive)	> 25 µM (inactive)	> 25 µM (inactive)	> 25 µM (inactive)	> 25 µM (inactive)	> 25 µM (inactive)	> 25 µM (inactive)		> 25 µM (inactive)	> 25 µM (inactive)		> 25 µM (inactive)		> 25 µM (inactive)
Nc1cc2c(c3ccccc13)C(CCl)CN2C(=O)c1cc2cc(NC(=O)Nc3ccc4[nH]c(C(=O)N5CC(CCl)c6c5cc(N)c5ccccc65)cc4c3)ccc2[nH]1 (stereo not drawn)	0.075 µM (active)	2.19 µM (inactive)	< 0.0303 µM (active)	< 0.01 µM (active)	0.0559 µM (active)	< 0.0377 µM (active)	< 0.01 µM (active)	0.995 µM (active)	0.0573 µM (active)	0.0678 µM (active)	1.42 µM (inactive)	0.141 µM (active)	0.0509 µM (active)	< 0.01 µM (active)	0.467 µM (active)	0.506 µM (active)	1.35 µM (inactive)	0.659 µM (active)	0.0297 µM (active)	
N#CC(C(=O)C(=O)Nc1ccc(Cl)cc1)c1ccccc1 (stereo not drawn)	> 100 µM (inactive)	> 100 µM (inactive)	> 100 µM (inactive)	> 100 µM (inactive)	> 100 µM (inactive)		> 100 µM (inactive)	> 100 µM (inactive)	> 100 µM (inactive)		> 100 µM (inactive)	> 100 µM (inactive)		> 100 µM (inactive)	> 100 µM (inactive)	> 100 µM (inactive)		> 100 µM (inactive)	> 100 µM (inactive)	> 100 µM (inactive)
COc1ccc(/C=C2\N=C(c3ccccc3)OC2=O)c(OCc2ccccc2)c1	> 100 µM (inactive)		49.7 µM (inactive)	53 µM (inactive)	> 100 µM (inactive)		14.1 µM (inactive)			22.9 µM (inactive)		19.8 µM (inactive)	24.6 µM (inactive)	85.1 µM (inactive)	19 µM (inactive)			> 100 µM (inactive)		38.2 µM (inactive)
Clc1ccc2c(NCCCCN3OC3c3ccccc3)ccnc2c1 (stereo not drawn)	5.21 µM (inactive)	10.5 µM (inactive)	3.23 µM (inactive)	6.5 µM (inactive)	14.8 µM (inactive)	5.53 µM (inactive)	2.15 µM (inactive)	4.79 µM (inactive)	3.4 µM (inactive)	3.71 µM (inactive)	10.3 µM (inactive)	4.79 µM (inactive)	6.41 µM (inactive)	8.77 µM (inactive)	4.45 µM (inactive)	19.6 µM (inactive)	14.6 µM (inactive)	3.64 µM (inactive)	5.82 µM (inactive)	
O=C(Cc1nc2ccccc2o1)C(=O)Nc1cccc(Cl)c1	> 100 µM (inactive)	> 100 µM (inactive)	> 100 µM (inactive)	> 100 µM (inactive)	> 100 µM (inactive)		> 100 µM (inactive)	> 100 µM (inactive)	> 100 µM (inactive)	> 100 µM (inactive)	> 100 µM (inactive)		> 100 µM (inactive)	> 100 µM (inactive)	> 100 µM (inactive)	> 100 µM (inactive)		> 100 µM (inactive)	> 100 µM (inactive)	> 100 µM (inactive)
Cc1nc(=O)n2c(C)n[nH]c2c1C(=O)O	> 100 µM (inactive)	> 100 µM (inactive)	> 100 µM (inactive)	> 100 µM (inactive)	> 100 µM (inactive)		> 100 µM (inactive)	> 100 µM (inactive)	> 100 µM (inactive)	> 100 µM (inactive)	> 100 µM (inactive)	10 µM (inactive)	> 100 µM (inactive)	> 100 µM (inactive)	> 100 µM (inactive)	> 100 µM (inactive)		> 100 µM (inactive)		> 100 µM (inactive)
Cc1ccc(C(=O)CC2(O)C(=O)Nc3c(C)cc(Cl)cc32)cc1 (stereo not drawn)	> 100 µM (inactive)	> 100 µM (inactive)	> 100 µM (inactive)	> 100 µM (inactive)	> 100 µM (inactive)		59.4 µM (inactive)	> 100 µM (inactive)	> 100 µM (inactive)	> 100 µM (inactive)	> 100 µM (inactive)	> 100 µM (inactive)	> 100 µM (inactive)	> 100 µM (inactive)	> 100 µM (inactive)	> 100 µM (inactive)		> 100 µM (inactive)	47.9 µM (inactive)	> 100 µM (inactive)
O=C1CCC(=O)C12CCc1ccccc12	> 100 µM (inactive)	> 100 µM (inactive)	> 100 µM (inactive)	> 100 µM (inactive)	> 100 µM (inactive)				> 100 µM (inactive)	> 100 µM (inactive)	> 100 µM (inactive)			> 100 µM (inactive)	> 100 µM (inactive)	> 100 µM (inactive)		> 100 µM (inactive)	> 100 µM (inactive)	> 100 µM (inactive)
CCOC(=O)/C=C(\C(=O)OCC)n1ccc(=O)n(CC(=O)OCC)c1=O	1.23 µM (inactive)	1.45 µM (inactive)	2.09 µM (inactive)	15.6 µM (inactive)	6.73 µM (inactive)	2.44 µM (inactive)	1.43 µM (inactive)	14 µM (inactive)	6.25 µM (inactive)	5.25 µM (inactive)	2.57 µM (inactive)	13 µM (inactive)	1 µM (active)	0.638 µM (active)	3.96 µM (inactive)	17.9 µM (inactive)	20 µM (inactive)	6.25 µM (inactive)	9.75 µM (inactive)	
c1ccc(CSc2nc3ccccc3nc2-c2cccs2)cc1		> 100 µM (inactive)	> 100 µM (inactive)	> 100 µM (inactive)	> 100 µM (inactive)		> 100 µM (inactive)	> 100 µM (inactive)	> 100 µM (inactive)	> 100 µM (inactive)	> 100 µM (inactive)	> 100 µM (inactive)	41.3 µM (inactive)		> 100 µM (inactive)	> 100 µM (inactive)		> 100 µM (inactive)	> 100 µM (inactive)	> 100 µM (inactive)
COC(=O)[C@]1(C)CCC[C@]2(C)[C@@H](CCC(=O)C(C)C)[C@]3(C=O)O[C@@H]3C[C@H]21	47.6 µM (inactive)	29.8 µM (inactive)	32.1 µM (inactive)	> 100 µM (inactive)	18.7 µM (inactive)	21.8 µM (inactive)	29.9 µM (inactive)	34.1 µM (inactive)	33.7 µM (inactive)	39.4 µM (inactive)	51.8 µM (inactive)	31.1 µM (inactive)	16.8 µM (inactive)	14.8 µM (inactive)	33.4 µM (inactive)	35.6 µM (inactive)	41.6 µM (inactive)	> 100 µM (inactive)	17.1 µM (inactive)	
COC(=O)C1=Cc2cc3c(cc2[C@H](c2ccc4c(c2)OCO4)C1C(=O)OC)OCO3 (stereo partly drawn)	71.3 µM (inactive)	27.4 µM (inactive)	68.1 µM (inactive)	89.9 µM (inactive)	> 100 µM (inactive)		35.6 µM (inactive)		61.4 µM (inactive)	> 100 µM (inactive)	> 100 µM (inactive)	46.6 µM (inactive)		74.1 µM (inactive)	44.9 µM (inactive)	> 100 µM (inactive)		> 100 µM (inactive)	44.8 µM (inactive)	> 100 µM (inactive)

From ChEMBL document CHEMBL1201862, “PubChem BioAssay data set” (2004)
